Inconclusive results and toxic doses are left out. Rule as the data show it: active = T/C of 150% or more; inactive = T/C below 125%.
Test system: L1210 leukemia ip in BDF1 mice, survival T/C
Test: NCI In Vivo Anticancer Drug Screen. Data for tumor model L1210 Leukemia (intraperitoneal) in B6D2F1 (BDF1) mice
Details: endpoint: mean survival time, higher = longer survival
How it was run: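 Read-out is survival time, reported as the treated-group measurement over the vehicle-control measurement.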

[1] = dose: 100.0 mg/kg/injection, schedule: Q01DX001 (ip), vehicle: saline
[2] = dose: 200.0 mg/kg/injection, schedule: Q01DX001 (ip), vehicle: saline
[3] = dose: 100.0 mg/kg/injection, schedule: Q01DX009 (ip), vehicle: saline with Tween-80
[4] = dose: 100.0 mg/kg/injection, schedule: Q04DX003 (ip), vehicle: saline with Tween-80
[5] = dose: 200.0 mg/kg/injection, schedule: Q01DX009 (ip), vehicle: saline with Tween-80
[6] = dose: 200.0 mg/kg/injection, schedule: Q04DX003 (ip), vehicle: saline with Tween-80
[7] = dose: 400.0 mg/kg/injection, schedule: Q01DX009 (ip), vehicle: saline with Tween-80
[8] = dose: 400.0 mg/kg/injection, schedule: Q04DX003 (ip), vehicle: saline with Tween-80
[9] = dose: 75.0 mg/kg/injection, schedule: Q01DX001 (ip), vehicle: saline
[10] = dose: 150.0 mg/kg/injection, schedule: Q01DX001 (ip), vehicle: saline
[11] = dose: 100.0 mg/kg/injection, schedule: Q04DX003 (ip), vehicle: Klucel (hydroxypropylcellulose) (HPC)
[12] = dose: 200.0 mg/kg/injection, schedule: Q04DX003 (ip), vehicle: Klucel (hydroxypropylcellulose) (HPC)
[13] = dose: 300.0 mg/kg/injection, schedule: Q01DX001 (ip), vehicle: saline

Measured: T/C

CC(=O)OC1=C(Cl)C(=O)c2ccccc2C1=O
inactive: dose: 75.0 mg/kg/injection, schedule: Q01DX001 (ip), vehicle: other 89 % of control | dose: 150.0 mg/kg/injection, schedule: Q01DX001 (ip), vehicle: other 94 % of control

O=C(O)CCCCCCC(=O)OCC(=O)c1ccc(-c2ccccc2)cc1
inactive: [1] 94 % of control | [2] 91 % of control | dose: 400.0 mg/kg/injection, schedule: Q01DX001 (ip), vehicle: saline 91 % of control

O=C(Cl)c1ccc(N2C(=O)c3ccccc3C2=O)cc1[N+](=O)[O-]
inactive: [3] 98 % of control | [4] 102 % of control | [5] 97 % of control | [6] 98 % of control | [7] 106 % of control | [8] 100 % of control

Nc1ccc2c(c1)C(=O)c1c(C(=O)O)cccc1-2
inactive: dose: 75.0 mg/kg/injection, schedule: Q01DX001 (ip), vehicle: carboxymethylcellulose (CMC) 108 % of control | dose: 150.0 mg/kg/injection, schedule: Q01DX001 (ip), vehicle: carboxymethylcellulose (CMC) 101 % of control

O=C(O)c1cc2ccccc2c2cc(C(F)(F)F)ccc12
inactive: [9] 92 % of control | [10] 97 % of control

Cc1ccc(C(=O)c2ccccc2C(=O)O)cc1C
inactive: [3] 90 % of control | dose: 100.0 mg/kg/injection, schedule: Q04DX002 (ip), vehicle: saline with Tween-80 93 % of control | [5] 93 % of control | dose: 200.0 mg/kg/injection, schedule: Q04DX002 (ip), vehicle: saline with Tween-80 114 % of control | [7] 87 % of control | dose: 400.0 mg/kg/injection, schedule: Q04DX002 (ip), vehicle: saline with Tween-80 101 % of control

O=C(O)C1c2ccccc2-c2c(-c3ccccc3)cccc21 (configuration not stated)
inactive: [4] 87 % of control | [6] 91 % of control | [8] 103 % of control

c1cc2cc3c(cc2c2c1CC1c4cc5c(cc4CCN1C2)OCO5)OCO3 (configuration not stated)
inactive: dose: 100.0 mg/kg/injection, schedule: Q01DX009 (ip), vehicle: Klucel (hydroxypropylcellulose) (HPC) 103 % of control | [11] 101 % of control | dose: 200.0 mg/kg/injection, schedule: Q01DX009 (ip), vehicle: Klucel (hydroxypropylcellulose) (HPC) 97 % of control | [12] 97 % of control | dose: 400.0 mg/kg/injection, schedule: Q01DX009 (ip), vehicle: Klucel (hydroxypropylcellulose) (HPC) 97 % of control | dose: 400.0 mg/kg/injection, schedule: Q04DX003 (ip), vehicle: Klucel (hydroxypropylcellulose) (HPC) 94 % of control

CC1(C)COC(C)(C)C(=O)O1
inactive: [11] 106 % of control | [12] 97 % of control

C/C=C/CC1(CCC)C(=O)NC(=O)NC1=O
inactive: [9] 100 % of control | [10] 98 % of control | [13] 104 % of control

COc1ccc2c(c1)CN(S(=O)(=O)c1ccc(C)cc1)CC/C2=N\O
inactive: dose: 100.0 mg/kg/injection, schedule: Q01DX009 (ip), vehicle: saline 94 % of control | dose: 200.0 mg/kg/injection, schedule: Q01DX009 (ip), vehicle: saline 94 % of control | dose: 400.0 mg/kg/injection, schedule: Q01DX009 (ip), vehicle: saline 104 % of control

O=CN/N=C\c1cccc2ccccc12
inactive: [9] 103 % of control | [10] 98 % of control | [13] 97 % of control

O=C1c2ccccc2C(=O)N1N1C(=O)c2ccccc2C1=O
inactive: [3] 96 % of control | [4] 97 % of control | [5] 91 % of control | [6] 100 % of control | [7] 96 % of control | [8] 97 % of control

CS(=O)(=O)N(CC(=O)O)Cc1cccc(Br)c1
inactive: dose: 50.0 mg/kg/injection, schedule: Q01DX005 (ip), vehicle: other 107 % of control | dose: 100.0 mg/kg/injection, schedule: Q01DX005 (ip), vehicle: other 120 % of control | dose: 200.0 mg/kg/injection, schedule: Q01DX005 (ip), vehicle: other 100 % of control

O=N[O-].O=N[O-].[NH2-].[NH2-].[Pt+2]
inactive: dose: 12.5 mg/kg/injection, schedule: Q01DX009 (ip), vehicle: Klucel (hydroxypropylcellulose) (HPC) 103 % of control | dose: 25.0 mg/kg/injection, schedule: Q01DX009 (ip), vehicle: Klucel (hydroxypropylcellulose) (HPC) 106 % of control | dose: 50.0 mg/kg/injection, schedule: Q01DX009 (ip), vehicle: Klucel (hydroxypropylcellulose) (HPC) 106 % of control

COc1cc(Oc2c(OC)cc(/C(C)=N/O)cc2OC)cc(OC)c1OC
inactive: [4] 105 % of control | [6] 92 % of control | [8] 95 % of control

O=C(c1ccc(-c2ccccc2)cc1)C(Br)CCBr (configuration not stated)
inactive: [4] 106 % of control | [6] 93 % of control

O=C(CC(C(=O)O)N1CCOCC1)c1ccccc1 (configuration not stated)
inactive: dose: 50.0 mg/kg/injection, schedule: Q01DX009 (ip), vehicle: saline sonified 99 % of control | dose: 100.0 mg/kg/injection, schedule: Q01DX009 (ip), vehicle: saline sonified 97 % of control | [11] 97 % of control | dose: 200.0 mg/kg/injection, schedule: Q01DX009 (ip), vehicle: saline sonified 97 % of control | [12] 92 % of control

O=c1[nH]ccc2n[nH]nc12
inactive: dose: 100.0 mg/kg/injection, schedule: Q01DX001 (ip), vehicle: other 104 % of control | dose: 100.0 mg/kg/injection, schedule: Q04DX003 (ip), vehicle: other 96 % of control | dose: 200.0 mg/kg/injection, schedule: Q01DX001 (ip), vehicle: other 101 % of control | dose: 200.0 mg/kg/injection, schedule: Q04DX003 (ip), vehicle: other 105 % of control | dose: 400.0 mg/kg/injection, schedule: Q01DX001 (ip), vehicle: other 104 % of control | dose: 400.0 mg/kg/injection, schedule: Q04DX003 (ip), vehicle: other 102 % of control

CC1(O)CCCCCCC1
inactive: dose: 50.0 mg/kg/injection, schedule: Q01DX001 (ip), vehicle: saline 102 % of control | [1] 93 % of control | [2] 91 % of control

From PubChem BioAssay AID248 (DTP/NCI, 2004)
